Tests used:
[1] = system: Rat aortic ring preparation; assay: Rat aortic ring preparation, NE induced contraction
[2] = system: Naturally occuring hypertensive cat; assay: Effect on blood pressure, heart rate and adrenaline vasopressor response, anaesthetized naturally hypertensive cat; format: in vivo
Experimental: (§1) 2. Effect on blood pressure, heart rate and adrenaline vasopressor response of anaesthetized (pentobarbitone sodium 40 & 60 mg/kg i.p. in cat and rat respectively) normotensive & hypertensive rat & cat model preparations.
(§2) • (a) Cats (2.6-4.0 kg) of either sex anaesthetized with pentobarbitone sodium (40 mg/kg i.v.) and showing basal mean arterial blood pressure below 150 mm (Hg) were categorised as normotensive and above 150 mm Hg as hypertensive. Arterial blood pressure (BP) was recorded from one of the carotid artery through a stathum P23 DC pressure transducer and 7P1 low level DC preamplifier on a Grass Model P7 Polygraph, Signals from 7P1 preamplifier were used to trigger 7P4 Tachograph preamplifier for recording the heart rate (HR). Right femoral vein and Trachea were cannulated for intravenous injections and artificial ventilation respectively. Control responses to intravenous injection of noradrenaline (2-4 ug); acetyl choline (1-2 ug); histamine ([…]) and isoprenaline (1-2 ug) were taken before and after the administration of test doses of each compounds.

[3] = system: Langendorffs perfused rat heart preparation; assay: Langendorff perfused rat heart, chronotropic effect
[4] = system: cat; assay: Drug antagonism studies of the antihypertensive effect in cat; format: in vivo; conditions: 2 uMol dose i.v.
[5] = system: Isolated aortic strip; assay: Isolated aortic strip, endothelin induced contraction
[6] = system: Normotensive cat; assay: Effect on blood pressure, heart rate and adrenaline vasopressor response, anaesthetized normotensive cat; format: in vivo
Experimental: as §1, §2

[7] = system: Langendorff perfused rat heart; assay: Antiischemic activity, Langendorff perfused rat heart, brief (16 min.) ischemic insult, compound given at reperfusion (Table 3); conditions: 0.001 ug/ml at reperfusion
Experimental: Table 3: Compound administered at the time of reperfusion at a dose of 0.001 ug/ml on brief period (16 min.) of ischemic insult.
(§3) The rats were killed by decapitation, heart were rapidly excised and placed in ice-cold HEPES tyrode buffer. Then isolated hearts were perfused retrogradely through coronary arteries using the Langendorff technique. The perfusion buffer consisted (in mM) NaCl 137, KCl 5.4, CaCl2 1.8, MgCl2 1.0, glucose 11.2 and HEPES 3.0. The buffer (pH 7.4) was continuously gassed with oxygen and maintained at 37°C. Coronary flow rate was maintained at 10 ml/min. The heart contracted spontaneously.
(§4) The perfused heart was allowed to equilibrate for 30 min. before initiation of any insult protocol. The text compounds were given at the time of reperfusion. Some of the compounds were dissolved in ethanol. Final concentration of ethanol in the perfusion buffer was 0.0001% and had no effect of its own on the parameter used. • (a) For brief period of ischemic insult (Hideo et al.). Pathophysiology and pathogenesis of stunned myocardium. J. Clin. Invest., 79, 950-961, 1987). Ischemia was initiated by stopping the flow for 16 min. followed by 30 min. reperfusion period. The durations were decided on the initial pilot experiments leading to 50% recovery of function. • (b) For prolong period of ischemic insult (Becker, L.C. & Ambrosio, G. Myocardial consequences of reperfusion. Prog. Cardiovas. Dis., 30, 23-44, 1987). Ischemia was initiated by stopping the flow for […]. followed by 30 min. reperfusion.

[8] = system: Spinal transected cat; assay: Site of action: spinal transected cat, blood pressure; format: in vivo; conditions: dose 2-10 umol/kg i.d.
[9] = system: Isolated Guinea pig ileum preparation; assay: Isolated guinea pig ileum, antihistaminic activity; conditions: 0.5-5.0 ug/ml
[10] = system: Normotensive rat model preparation; assay: Effect on blood pressure, heart rate and adrenaline vasopressor response, anaesthetized normotensive rat; format: in vivo
Experimental: as §1

[11] = system: cat; assay: Comparative antihypertensive effect with clinically used antihypertensive drugs in cat; format: in vivo; conditions: 2 uMol/kg i.v.
Text: (4) Comparative antihypertensive effect with clinically used antihypertensive drugs at 2 uMol/kg i.v. dose in cat

[12] = system: histamine induced bronchoconstriction; assay: Konzett and Rossler preparation, histamine induced bronchoconstriction; format: in vivo
[13] = system: cat; assay: Effect on blood pressure and adrenaline vasopressor response in anaesthetized cat, i.v. (Table 2); format: in vivo
Experimental: as §2

[14] = system: Rat hind limb perfusion; assay: Site of action: rat hind limb perfusion, flow; format: in vivo
[15] = system: Langendorff perfused rat heart preparation; assay: Cardioprotective activity, Langendorff perfused rat heart, prolonged ischemic insult, compound given at reperfusion
Experimental: Further, in Langendorff perfused rat heart preparation subjected to even upto 90 min. global ischemia, the compound at 0.001 ug/ml conc. given at the time of reperfusion revived normal rhythmic contraction started within 2 min. (Table 1) and incidence of reperfusion induced arrhythmia were abolished. Table 1: Compound administered at the time of reperfusion at the dose of 0.001 ug/ml on prolong period (90 min.) of ischemic insult.
as §3, §4

[16] = Site of action: ICV administration, blood pressure; format: in vivo; conditions: dose 0.34-1.36 (column head: umol/kg i.d.)
[17] = Acute toxicity (LD50); conditions: mouse, in vivo, Mice
[18] = system: Hypertensive rat model preparation; assay: Effect on blood pressure, heart rate and adrenaline vasopressor response, anaesthetized hypertensive rat model; format: in vivo
Experimental: 2. Effect on blood pressure, heart rate and adrenaline vasopressor response of anaesthetized (pentobarbitone sodium 40 & 60 mg/kg i.p. in cat and rat respectively) normotensive & hypertensive rat & cat model preparations. […]

[19] = dose 20 uMol/kg i.d., in beats/min (unit assumed)
[20] = up to 90 min. global ischemia, 0.001 ug/ml given at the time of reperfusion

O=C1CCCN1CCCN1CCN(c2ccc(F)cc2)CC1 [C6H4-4-F, n=1, 1-[4-(4-fluorophenyl)piperazin-1-yl]-3-[2-oxopyrrolidin-1-yl]propane]
NE induced contraction [1]: inhibited | Adrenaline vasopressure response % inhibition ([2]; dose 10 uMol/kg i.d.): 49% | B.P. fall ([2]; dose 10 uMol/kg i.d.): 16% | Dur. ([2]; dose 10 uMol/kg i.d.): 110 min | Heart rate Pre treatment ([2]; dose 10 uMol/kg i.d.): 195/195 | Heart rate post treatment ([2]; dose 10 uMol/kg i.d.): 195/195 | B.P. fall ([2]; dose 20 uMol/kg i.d.): 22% | Dur. ([2]; dose 20 uMol/kg i.d.): >156.75 min | Heart rate Pre treatment [2, 19]: 177 | Heart rate post treatment [2, 19]: 185 | duration of negative chronotropic effect ([3]; 1 ug): 10 min | negative chronotropic effect ([3]; 1 ug): 30% | duration of negative chronotropic effect ([3]; 3 ug): 14 min | negative chronotropic effect ([3]; 3 ug): 26% | duration of negative chronotropic effect ([3]; 5 ug): 5 min | negative chronotropic effect ([3]; 5 ug): 5% | reduction of the fall in blood pressure ([4]; glibenclamide pretreatment): only partially reduced | alteration of antihypertensive effect ([4]; pretreatment with atropine sulphate, mepyramine maleate, propranolol, or yohimbine): failed to alter | reduction of antihypertensive effect ([4]; pretreatment with captopril or Dup-753): 33% | reduction of antihypertensive effect ([4]; pretreatment with prazosin): 90% | reduction of antihypertensive effect ([4]; pretreatment with verapamil): 50% | Endothelin induced contraction [5]: inhibited significantly | Response to endothelin after washing the preparation ([5]; after washing): relaxation rather than contraction | Adrenaline vasopressure response % inhibition ([6]; dose 10 uMol/kg i.d.): 26% | B.P. fall ([6]; dose 10 uMol/kg i.d.): 22% | Dur. ([6]; dose 10 uMol/kg i.d.): 85 min | Heart rate Pre treatment ([6]; dose 10 uMol/kg i.d.): 200 beats/min | Heart rate post treatment ([6]; dose 10 uMol/kg i.d.): 170 beats/min | Adrenaline vasopressure response % inhibition ([6]; dose 20 uMol/kg i.d.): 34.75% | B.P. fall ([6]; dose 20 uMol/kg i.d.): 21% | Dur. ([6]; dose 20 uMol/kg i.d.): >102.5 min | Heart rate Pre treatment ([6]; dose 20 uMol/kg i.d.): 185 beats/min | Heart rate post treatment ([6]; dose 20 uMol/kg i.d.): 165 beats/min | Onset [7]: 1.5 min | B.P. fall [8]: 14-18% | Dur. [8]: 15 to 30 min | antihistaminic activity [9]: significant antihistaminic activity | B.P. fall ([10]; dose 2 uMol/kg i.v.): 25% | Dur. ([10]; dose 2 uMol/kg i.v.): 11 min | Heart rate Pre treatment ([10]; dose 2 uMol/kg i.v.): 350 beats/min | Heart rate post treatment ([10]; dose 2 uMol/kg i.v.): 370 beats/min | B.P. fall ([10]; dose 10 uMol/kg i.v.): 10% | Dur. ([10]; dose 10 uMol/kg i.v.): 3 min | Heart rate Pre treatment ([10]; dose 10 uMol/kg i.v.): 315 beats/min | Heart rate post treatment ([10]; dose 10 uMol/kg i.v.): 360 beats/min | B.P. fall ([10]; dose 20 uMol/kg i.v.): 21% | Dur. ([10]; dose 20 uMol/kg i.v.): 27.5 min | Heart rate Pre treatment ([10]; dose 20 uMol/kg i.v.): 315 beats/min | Heart rate post treatment ([10]; dose 20 uMol/kg i.v.): 285 beats/min | B.P. fall [11]: 22% | Dur. [11]: 25 min | antihistaminic activity against histamine induced bronchoconstriction [12]: some antihistaminic activity | inhibition at 2 µmol/kg ([13]; Felis catus, iv, dose 2.0 umol/kg i.v., read-out: Adrenaline vasopressure response % inhibition): 9% | inhibition in vivo at 2 µmol/kg ([13]; Felis catus, iv, dose 2.0 umol/kg i.v., read-out: B.P. fall %): 25% | inhibition at 10 µmol/kg ([13]; Felis catus, iv, dose 10.0 umol/kg i.v., read-out: Adrenaline vasopressure response % inhibition): > 100% | inhibition in vivo at 10 µmol/kg ([13]; Felis catus, iv, dose 10.0 umol/kg i.v., read-out: B.P. fall %): 31% | Dur. ([13]; dose 2.0 umol/kg i.v.): 71 min | Dur. ([13]; dose 10.0 umol/kg i.v.): >112 min | Percent change in flow ([14]; total dose 10 ug): no effect | Percent change in flow ([14]; total dose 25 ug): +35 (Vasodilatation) Percent | Percent change in flow ([14]; total dose 50 ug): +50 (Vasodilatation) Percent | Onset ([15]; 0.001 ug/ml at reperfusion, 90 min. ischemic insult): 4 min | incidence of reperfusion induced arrhythmia [15, 20]: abolished | time until normal rhythmic contraction started [15, 20]: ≤ 2 min | B.P. fall [16]: 8-10% | Dur. [16]: 10 to 15 min | LD50 ([17]; ip): 147 mg/kg | LD50 ([17]; po): 562 mg/kg | Adrenaline vasopressure response % inhibition ([18]; dose 5 uMol/kg i.d.): 33% | B.P. fall ([18]; dose 5 uMol/kg i.d.): 27% | Dur. ([18]; dose 5 uMol/kg i.d.): 51 min | Heart rate Pre treatment ([18]; dose 5 uMol/kg i.d.): 346 beats/min | Heart rate post treatment ([18]; dose 5 uMol/kg i.d.): 320 beats/min | Adrenaline vasopressure response % inhibition ([18]; dose 10 uMol/kg i.d.): 23% | B.P. fall ([18]; dose 10 uMol/kg i.d.): 22% | Dur. ([18]; dose 10 uMol/kg i.d.): 76 min | Heart rate Pre treatment ([18]; dose 10 uMol/kg i.d.): 356 beats/min | Heart rate post treatment ([18]; dose 10 uMol/kg i.d.): 340 beats/min | Adrenaline vasopressure response % inhibition ([18]; dose 20 uMol/kg i.d.): 54% | B.P. fall ([18]; dose 20 uMol/kg i.d.): 29% | Dur. ([18]; dose 20 uMol/kg i.d.): 100 min | Heart rate Pre treatment ([18]; dose 20 uMol/kg i.d.): 310 beats/min | Heart rate post treatment ([18]; dose 20 uMol/kg i.d.): 275 beats/min
